From ChEMBL document CHEMBL1201862, “PubChem BioAssay data set” (2004)
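Method: 48-hour compound exposure of cells in 96-well plates, five concentrations, linear interpolation of endpoints. The concentration for 50% growth inhibition is given as GI50.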 Activity calls are given as the source filed them. No stated cut-off is given here; in the data, active = GI50 up to about 1.1 µM and inactive = higher.

Tests used:
Experiment in all cases: NCI anticancer screen, dose series, 48 h
[1] = tested on: HCT-116
[2] = tested on: HL-60
[3] = tested on: KM12
[4] = tested on: PC-3
[5] = tested on: U-251
[6] = tested on: ACHN
[7] = tested on: LOX IMVI
[8] = tested on: SF-295
[9] = tested on: OVCAR-3
[10] = tested on: MDA-MB-435
[11] = tested on: RXF 393
[12] = tested on: TK-10
[13] = tested on: IGROV-1
[14] = tested on: MDA-MB-231
[15] = tested on: M14
[16] = tested on: UACC-62
[17] = tested on: HOP-92
[18] = tested on: DU-145
[19] = tested on: A549
[20] = tested on: Malme-3M
[21] = tested on: MCF7
[22] = tested on: NCI/ADR-RES
[23] = tested on: SK-OV-3
[24] = tested on: COLO 205
[25] = tested on: NCI-H226
[26] = tested on: SN12C
[27] = tested on: RPMI-8226
[28] = tested on: 786-0
[29] = tested on: SK-MEL-28
[30] = tested on: OVCAR-4
[31] = tested on: UACC-257
[32] = tested on: HT-29
[33] = tested on: UO-31
[34] = tested on: MDA-N
[35] = tested on: SK-MEL-2
[36] = tested on: SF-268
[37] = tested on: EKVX
[38] = tested on: SNB-19
[39] = tested on: NCI-H522
[40] = tested on: MOLT-4
[41] = tested on: OVCAR-8
[42] = tested on: SF-539
[43] = tested on: HCT-15
[44] = tested on: NCI-H23
[45] = tested on: T47D
[46] = tested on: HOP-62
[47] = tested on: K562
[48] = tested on: SK-MEL-5
[49] = tested on: OVCAR-5
[50] = tested on: CAKI-1
[51] = tested on: SR
[52] = tested on: A498
[53] = tested on: Hs-578T
[54] = tested on: SW-620
[55] = tested on: BT-549
[56] = tested on: NCI-H460
[57] = tested on: SNB-75
[58] = tested on: CCRF-CEM
[59] = tested on: HCC 2998

Compound: Cn1c2c(c3ccccc31)CCN1C(=O)C34CCCC3CC21S4 (configuration not stated)
- GI50 [1]: > 100 µM (inactive)
- GI50 [2]: > 100 µM (inactive)
- GI50 [3]: > 100 µM (inactive)
- GI50 [4]: 95.1 µM (inactive)
- GI50 [5]: > 100 µM (inactive)
- GI50 [6]: > 100 µM (inactive)
- GI50 [7]: > 100 µM (inactive)
- GI50 [8]: > 100 µM (inactive)
- GI50 [9]: > 100 µM (inactive)
- GI50 [10]: > 100 µM (inactive)
- GI50 [11]: > 100 µM (inactive)
- GI50 [12]: > 100 µM (inactive)
- GI50 [13]: > 100 µM (inactive)
- GI50 [14]: > 100 µM (inactive)
- GI50 [15]: > 100 µM (inactive)
- GI50 [16]: 78.7 µM (inactive)
- GI50 [17]: > 100 µM (inactive)
- GI50 [18]: > 100 µM (inactive)
- GI50 [19]: > 100 µM (inactive)
- GI50 [20]: > 100 µM (inactive)
- GI50 [21]: > 100 µM (inactive)
- GI50 [22]: > 100 µM (inactive)
- GI50 [23]: > 100 µM (inactive)
- GI50 [24]: > 100 µM (inactive)
- GI50 [25]: > 100 µM (inactive)
- GI50 [26]: > 100 µM (inactive)
- GI50 [27]: > 100 µM (inactive)
- GI50 [28]: > 100 µM (inactive)
- GI50 [29]: > 100 µM (inactive)
- GI50 [30]: > 100 µM (inactive)
- GI50 [31]: > 100 µM (inactive)
- GI50 [32]: > 100 µM (inactive)
- GI50 [33]: > 100 µM (inactive)
- GI50 [34]: > 100 µM (inactive)
- GI50 [35]: > 100 µM (inactive)
- GI50 [36]: > 100 µM (inactive)
- GI50 [37]: > 100 µM (inactive)
- GI50 [38]: > 100 µM (inactive)
- GI50 [39]: > 100 µM (inactive)
- GI50 [40]: > 100 µM (inactive)
- GI50 [41]: > 100 µM (inactive)
- GI50 [42]: > 100 µM (inactive)
- GI50 [43]: > 100 µM
- GI50 [44]: > 100 µM (inactive)
- GI50 [45]: 87.1 µM (inactive)
- GI50 [46]: > 100 µM (inactive)
- GI50 [47]: > 100 µM (inactive)
- GI50 [48]: 76.2 µM (inactive)
- GI50 [49]: > 100 µM (inactive)
- GI50 [50]: > 100 µM (inactive)
- GI50 [51]: > 100 µM (inactive)
- GI50 [52]: > 100 µM (inactive)
- GI50 [53]: > 100 µM (inactive)
- GI50 [54]: > 100 µM (inactive)
- GI50 [55]: > 100 µM (inactive)

Compound: Nc1cc([N+](=O)[O-])ccc1C(=O)N1CCC[C@H]1CO
- GI50 [1]: > 100 µM (inactive)
- GI50 [2]: > 100 µM (inactive)
- GI50 [3]: > 100 µM (inactive)
- GI50 [4]: > 100 µM (inactive)
- GI50 [5]: > 100 µM (inactive)
- GI50 [6]: > 100 µM (inactive)
- GI50 [56]: > 100 µM (inactive)
- GI50 [57]: > 100 µM (inactive)
- GI50 [7]: > 100 µM (inactive)
- GI50 [58]: > 100 µM (inactive)
- GI50 [8]: > 100 µM (inactive)
- GI50 [10]: > 100 µM (inactive)
- GI50 [11]: > 100 µM (inactive)
- GI50 [12]: > 100 µM (inactive)
- GI50 [13]: > 100 µM (inactive)
- GI50 [14]: > 100 µM (inactive)
- GI50 [16]: > 100 µM (inactive)
- GI50 [17]: > 100 µM (inactive)
- GI50 [18]: > 100 µM (inactive)
- GI50 [19]: > 100 µM (inactive)
- GI50 [20]: > 100 µM (inactive)
- GI50 [21]: > 100 µM (inactive)
- GI50 [22]: > 100 µM (inactive)
- GI50 [23]: > 100 µM (inactive)
- GI50 [24]: > 100 µM (inactive)
- GI50 [25]: > 100 µM (inactive)
- GI50 [26]: > 100 µM (inactive)
- GI50 [27]: > 100 µM (inactive)
- GI50 [28]: > 100 µM (inactive)
- GI50 [29]: > 100 µM (inactive)
- GI50 [30]: > 100 µM (inactive)
- GI50 [31]: > 100 µM (inactive)
- GI50 [32]: > 100 µM (inactive)
- GI50 [33]: > 100 µM (inactive)
- GI50 [34]: > 100 µM (inactive)
- GI50 [35]: > 100 µM (inactive)
- GI50 [36]: > 100 µM (inactive)
- GI50 [37]: > 100 µM (inactive)
- GI50 [38]: > 100 µM (inactive)
- GI50 [39]: > 100 µM (inactive)
- GI50 [40]: > 100 µM (inactive)
- GI50 [41]: > 100 µM (inactive)
- GI50 [42]: > 100 µM (inactive)
- GI50 [43]: > 100 µM
- GI50 [44]: > 100 µM (inactive)
- GI50 [45]: 90.4 µM (inactive)
- GI50 [47]: > 100 µM (inactive)
- GI50 [50]: > 100 µM (inactive)
- GI50 [51]: > 100 µM (inactive)
- GI50 [52]: > 100 µM (inactive)
- GI50 [53]: 64.1 µM (inactive)
- GI50 [54]: > 100 µM (inactive)
- GI50 [55]: > 100 µM (inactive)

Compound: C1=C\SS/C=C\SS/1
- GI50 [1]: 34.4 µM (inactive)
- GI50 [2]: 7.57 µM (inactive)
- GI50 [3]: 36 µM (inactive)
- GI50 [4]: 38.5 µM (inactive)
- GI50 [5]: 34.8 µM (inactive)
- GI50 [6]: 27.9 µM (inactive)
- GI50 [56]: 23.9 µM (inactive)
- GI50 [7]: 29 µM (inactive)
- GI50 [58]: 2.28 µM (inactive)
- GI50 [8]: 58.1 µM (inactive)
- GI50 [10]: 57.5 µM (inactive)
- GI50 [11]: 32.2 µM (inactive)
- GI50 [12]: 40.7 µM (inactive)
- GI50 [13]: 16.6 µM (inactive)
- GI50 [14]: 6.53 µM (inactive)
- GI50 [15]: 29.5 µM (inactive)
- GI50 [16]: 52.4 µM (inactive)
- GI50 [17]: 24.3 µM (inactive)
- GI50 [18]: > 100 µM (inactive)
- GI50 [19]: 48.1 µM (inactive)
- GI50 [21]: 15.9 µM (inactive)
- GI50 [22]: 46 µM (inactive)
- GI50 [23]: > 100 µM (inactive)
- GI50 [24]: 39.3 µM (inactive)
- GI50 [25]: > 100 µM (inactive)
- GI50 [26]: 61.9 µM (inactive)
- GI50 [27]: 28.9 µM (inactive)
- GI50 [28]: 17 µM (inactive)
- GI50 [29]: > 100 µM (inactive)
- GI50 [30]: 46.8 µM (inactive)
- GI50 [31]: 38.9 µM (inactive)
- GI50 [32]: 15.6 µM (inactive)
- GI50 [33]: 22.2 µM (inactive)
- GI50 [34]: 40.3 µM (inactive)
- GI50 [35]: 48.4 µM (inactive)
- GI50 [36]: 40.5 µM (inactive)
- GI50 [37]: 46.8 µM (inactive)
- GI50 [38]: 32.3 µM (inactive)
- GI50 [40]: 12.9 µM (inactive)
- GI50 [41]: 17.1 µM (inactive)
- GI50 [59]: 53.3 µM (inactive)
- GI50 [43]: 14.4 µM
- GI50 [44]: 40.9 µM (inactive)
- GI50 [45]: 55.1 µM (inactive)
- GI50 [46]: 54.6 µM (inactive)
- GI50 [47]: 26.1 µM (inactive)
- GI50 [48]: 24.5 µM (inactive)
- GI50 [49]: 35.3 µM (inactive)
- GI50 [50]: > 10 µM (inactive)
- GI50 [51]: > 100 µM (inactive)
- GI50 [52]: > 100 µM (inactive)
- GI50 [53]: > 100 µM (inactive)
- GI50 [54]: 33.1 µM (inactive)
- GI50 [55]: 97.1 µM (inactive)
